From PMC11532403 (Signal Transduction and Targeted Therapy, 2024)
Values joined by “and” are separate entries in the source; they are usually repeats but may differ in a detail not shown here. Equal entries are not always repeated.

Test system: RET-altered solid tumors
Test: Phase 1 trial: anti-tumor efficacy (RECIST 1.1)
Assay type: in vivo, human
Details: for PFS Follow-up (m) / PFS: Type of event: individual patients; for Best overall response: Partial response / Best overall response: Progressive disease / Best overall response: Stable disease / DCR, % (95% CI) / Median DoR, months (95% CI) / Median PFS, months (95% CI) / Median TTR, months (95% CI) / ORR, % (95% CI): patients with detectable RET variations
Experimental: Radiologic tumor assessments were conducted by computed tomography (CT) or magnetic resonance imaging (MRI) of brain, chest, abdomen, and pelvis at baseline, 4 weeks for the first tumor assessment, then every 8 weeks (± 7 days) for 1 year, and every 12 weeks (± 7 days) thereafter. MTC patients were longitudinally monitored for serum calcitonin and carcinoembryonic antigen (CEA) levels.

[1] = RP2D, PTC, treatment-naïve (n = 1)
[2] = Treatment-naïve, 40 mg BID (n = 1)
[3] = Treatment-naïve, 160 mg BID (n = 37)
[4] = Treatment-naïve, 200 mg BID (n = 2)
[5] = Treatment-naïve, all doses (n = 40)
[6] = baseline ctDNA detectable RET alterations (n = 61)
[7] = baseline ctDNA undetectable RET alterations (n = 53)
[8] = ctDNA analysis, all patients (n = 114)

`COc1ccc(CN2C3CC2CN(c2ccc(-c4cc(N5CC(C)(O)C5)cn5ncc(C#N)c45)cn2)C3)cn1` [SY-5007, 6-(3-hydroxy-3-methylazetidin-1-yl)-4-(6-(6-((6-methoxypyridin-3-yl)methyl)-3,6-diazabicyclo[3.1.1]heptan-3-yl)pyridin-3-yl)pyrazolo[1,5-a]pyridine-3-carbonitrile] was tested, and the “ORR (95% CI)” value [1] was 0 (0.0-97.5) %, the Partial response [1] was 0 (0.0) n (%) and the Progressive disease [1] was 0 (0.0) n (%). The Stable disease [1] was 1 (100.0) n (%), the “Median PFS (95% CI)” value [2] was 1.67 (NE-NE) months and the “ORR (95% CI)” value [2] was 0 (0.0–97.5) %. The Partial response [2] was 0 (0.0) n (%), the Progressive disease [2] was 0 (0.0) n (%) and the Stable disease [2] was 1 (100.0) n (%). The “DCR (95% CI)” value (Treatment-naïve, 40 mg BID (n = 1), 40 mg twice daily) was 100.0 (2.5–100.0) %, the “DCR (95% CI)” value [3] was 94.6 (81.8–99.3) % and the “Median DoR (95% CI)” value [3] was 14.5 (9.26-NE) months. For the same compound, the “Median PFS (95% CI)” value [3] was 15.5 (9.23-NE) months, the “Median TTR (95% CI)” value [3] was 2.75 (0.98–2.89) months and the “ORR (95% CI)” value [3] was 70.3 (53.0–84.1) %. The Partial response [3] was 26 (70.3) n (%), the Progressive disease [3] was 2 (5.4) n (%) and the Stable disease [3] was 9 (24.3) n (%). The “DCR (95% CI)” value [4] was 100.0 (15.8–100.0) %, the “Median DoR (95% CI)” value [4] was 5.32 (5.06-NE) months and the “Median PFS (95% CI)” value [4] was 6.22 (5.98-NE) months. For the same compound, the “Median TTR (95% CI)” value [4] was 0.93 (0.91-NE) months, the “ORR (95% CI)” value [4] was 100.0 (15.8–100.0) % and the Partial response [4] was 2 (100.0) n (%). The Progressive disease [4] was 0 (0.0) n (%), the Stable disease [4] was 0 (0.0) n (%) and the “DCR (95% CI)” value [5] was 95.0 (83.1–99.4) %. For the same compound, the “Median DoR (95% CI)” value [5] was 14.5 (6.47–NE) months, the “Median PFS (95% CI)” value [5] was 15.5 (9.23–NE) months and the “Median TTR (95% CI)” value [5] was 2.75 (0.95–2.89) months. The “ORR (95% CI)” value [5] was 70.0 (53.5–83.4) %, the Partial response [5] was 28 (70.0) n (%) and the Progressive disease [5] was 2 (5.0) n (%). The Stable disease [5] was 10 (25.0) n (%), the “Estimated 6-month PFS rate” value (all patients) was 86.1% and the “Estimated 12-month PFS rate” value (all patients) was 68.9%. The “Patients with progression events or death” value (all patients in phase 1) was 29 (23.8%) n (%), the “DCR (95% CI)” value [6] was 96.7 (88.7-99.6) % and the “Median DoR (95% CI)” value [6] was 13.0 (9.23-19.9) months. The “Median PFS (95% CI)” value [6] was 13.8 (10.0-15.5) months, the “Median TTR (95% CI)” value [6] was 2.79 (1.01-6.73) months and the “ORR (95% CI)” value [6] was 57.4 (44.1-70.0) %. For the same compound, the Partial response [6] was 35 (57.4) n (%), the Progressive disease [6] was 2 (3.3) n (%) and the Stable disease [6] was 24 (39.3) n (%). For the same compound, the “DCR (95% CI)” value [7] was 94.3 (84.3-98.8) %, the “Median TTR (95% CI)” value [7] was 3.15 (2.75-6.30) months and the “ORR (95% CI)” value [7] was 60.4 (46.0-73.5) %. For the same compound, the Partial response [7] was 32 (60.4) n (%), the Progressive disease [7] was 3 (5.7) n (%) and the Stable disease [7] was 18 (34.0) n (%). For the same compound, the “DCR (95% CI)” value [8] was 95.6 (90.1-98.6) %, the “Median DoR (95% CI)” value [8] was 19.9 (12.8-NE) months and the “Median PFS (95% CI)” value [8] was 21.1 (13.8-NE) months. The “Median TTR (95% CI)” value [8] was 2.79 (2.75-4.66) months, the “ORR (95% CI)” value [8] was 58.8 (49.2-67.9) % and the Partial response [8] was 67 (58.8) n (%). The Progressive disease [8] was 5 (4.4) n (%), the Stable disease [8] was 42 (36.8) n (%) and the ORR (ctDNA-detectable KIF5B-RET (27/46)) was 58.7%. For the same compound, the ORR (ctDNA-detectable RET mutations (3/9)) was 33.3%, the ORR (ctDNA-detectable other RET fusions (5/7)) was 71.4% and the “Median PFS” value (detectable RET, concomitant TP53 mutation) was 10.1 months. For the same compound, the ORR (detectable RET, concomitant TP53 mutation (11/22)) was 50.0%, the “Median PFS” value (detectable RET, without TP53 mutation) was 15.4 months and the ORR (detectable RET, without TP53 mutation (24/39)) was 61.5%. For the same compound, the ORR (dose-escalation phase (9/17)) was 52.9%, the DCR (dose-escalation phase (16/17)) was 94.1% and the ORR (dose-expansion phase (58/99)) was 58.6%. For the same compound, the DCR (dose-expansion phase (95/99)) was 96.0%, the “1-year DoR rate” value (in vivo) was 74.1% and the “PFS Follow-up (m)” value (GC, 160mg BID) was 1.02 m. The “PFS: Type of event” value (GC, 160mg BID) was “Censoring”, the “PFS Follow-up (m)” value (MTC, 160mg BID) was 5.75 m and 0.99 m and 2.76 m and 2.66 m and 6.41 m and 4.60 m and 0.85 m and 0.92 m and 14.72 m and 6.44 m and 11.96 m and 6.51 m and 13.90 m and 8.41 m and 4.57 m and 8.51 m and 6.60 m and 2.86 m and 8.38 m and the “PFS: Type of event” value (MTC, 160mg BID) was “Censoring”. The “PFS Follow-up (m)” value (NSCLC, 20mg BID) was 27.14 m, the “PFS Follow-up (m)” value (NSCLC, 20mg QD) was 4.83 m and the “PFS: Type of event” value (NSCLC, 20mg QD) was “Censoring”. For the same compound, the “PFS Follow-up (m)” value (NSCLC, 40mg BID) was 25.07 m and 10.29 m and 1.68 m, the “PFS: Type of event” value (NSCLC, 40mg BID) was “Censoring” and the “PFS Follow-up (m)” value (NSCLC, 80mg BID) was 23.30 m and 6.64 m and 23.23 m. For the same compound, the “PFS: Type of event” value (NSCLC, 80mg BID) was “Censoring”, the “PFS Follow-up (m)” value (NSCLC, 120mg BID) was 21.39 m and 21.42 m and 21.13 m and the “PFS: Type of event” value (NSCLC, 120mg BID) was “Censoring”. For the same compound, the “PFS Follow-up (m)” value (NSCLC, 200mg BID) was 11.99 m and 11.96 m and 5.98 m and 5.75 m and 17.74 m and 3.15 m and 6.47 m and 12.16 m and 0.89 m, the “PFS: Type of event” value (NSCLC, 200mg BID) was “Censoring” and the “PFS Follow-up (m)” value (PTC, 160mg BID) was 8.35 m and 2.79 m and 8.38 m and 8.48 m and 6.67 m and 2.89 m and 2.92 m. For the same compound, the ORR (non-clearance or unknown RET alterations at Cycle 1 Day 28 (16/42)) was 38.1%, the “Best overall response: Partial response” value (TP53 mutant, n=22) was 11 (50.0) and the “Best overall response: Progressive disease” value (TP53 mutant, n=22) was 0 (0.0). The “Best overall response: Stable disease” value (TP53 mutant, n=22) was 11 (50.0), the “DCR, % (95% CI)” value (TP53 mutant, n=22) was 100.0 (84.6-100.0) % and the “Median DoR, months (95% CI)” value (TP53 mutant, n=22) was 13.0 (2.82-NE) months. The “Median PFS, months (95% CI)” value (TP53 mutant, n=22) was 10.1 (6.21-NE) months, the “Median TTR, months (95% CI)” value (TP53 mutant, n=22) was 2.89 (0.95-NE) months and the “ORR, % (95% CI)” value (TP53 mutant, n=22) was 50.0 (28.2-71.8) %. The “Best overall response: Partial response” value (TP53 wild-type, n=39) was 24 (61.5), the “Best overall response: Progressive disease” value (TP53 wild-type, n=39) was 2 (5.1) and the “Best overall response: Stable disease” value (TP53 wild-type, n=39) was 13 (33.3). For the same compound, the “DCR, % (95% CI)” value (TP53 wild-type, n=39) was 94.9 (82.7-99.4) %, the “Median DoR, months (95% CI)” value (TP53 wild-type, n=39) was 19.9 (6.47-NE) months and the “Median PFS, months (95% CI)” value (TP53 wild-type, n=39) was 15.4 (9.23-NE) months. For the same compound, the “Median TTR, months (95% CI)” value (TP53 wild-type, n=39) was 2.79 (0.98-6.73) months, the “ORR, % (95% CI)” value (TP53 wild-type, n=39) was 61.5 (44.6-76.6) % and the “Best overall response: Partial response” value (all patients, n=61) was 35 (57.4). For the same compound, the “Best overall response: Progressive disease” value (all patients, n=61) was 2 (3.3), the “Best overall response: Stable disease” value (all patients, n=61) was 24 (39.3) and the “DCR, % (95% CI)” value (all patients, n=61) was 96.7 (88.7-99.6) %. For the same compound, the “Median DoR, months (95% CI)” value (all patients, n=61) was 13.0 (9.23-19.9) months, the “Median PFS, months (95% CI)” value (all patients, n=61) was 13.8 (10.0-15.5) months and the “Median TTR, months (95% CI)” value (all patients, n=61) was 2.79 (1.01-6.73) months. For the same compound, the “ORR, % (95% CI)” value (all patients, n=61) was 57.4 (44.1-70.0) %, the ORR (patients with rapid ctDNA clearance of RET alteration) was 100% and the “Median TTR” value (patients with rapid ctDNA decline/clearance of RET alteration) was 0.91 months.
